# Measurements reported in patent US8623661B2, “Iron chelating agent, method for producing same, method for determining amount of iron ions and method for trapping iron ions” (National University Corporation Asahikawa Medical College, priority 2008, dated 2014).
# Assays:
# [1] = tested on: iron citrate complex ammonium salt (FAC); assay: Evaluation C: chelating ability in MOPS/acetonitrile solvent, FAC solution; assay type: binding
# Experimental: Evaluation was carried out by the following evaluation method C as to whether or not the iron chelating agent according to Examples 1 to 3 had chelating ability with iron in 3-morpholinopropanesulfonic acid (C7H15NO4S;MOPS) and acetonitrile solution as solvents used in high performance liquid chromatography (HPLC).
# 2.09 g of morpholinopropanesulfonic acid (C7H15NO4S; FW=209.26, Code 341-01801, Lot PX013, manufactured by Dojindo/Wako Corporation) was added to a 100 mL Erlenmeyer flask, 80 mL of ultrapure water (pure water produced by an ultrapure water production system manufactured by Millipore Corporation (Milli-Q); “Milli-Q water”) was added thereto and dissolved [pH 4.15 (24.4° C.)]. To this solution, 1N sodium hydroxide solution (1 mol/1 sodium hydroxide solution, Code 192-02175, Lot SEP7274, manufactured by Wako Pure Chemicals Industries) was added in 100 μl portions, the pH was adjusted to 7.0 and further Milli-Q water was made up to 100 mL in a measuring cylinder, whereby 100 mL of MOPS solution (pH 6.99) was prepared.
# An iron chelating agent solution having an iron chelating agent concentration of 50 mM was prepared with respect to the iron chelating agent according to Examples 1 to 3, in the same manner as the preparation method of the iron chelating solution in evaluation A of the iron chelating agent.
# Further, 100 mM of MOPS solution (pH6.99) prepared by the preparation method of the MOPS solution was used.
# Furthermore, a stock solution of acetonitrile (C2H3N, FW=41.05, Code 347-06641, Lot WPI96, manufactured by Dojindo/Wako corporation) was used.
# 13.8 mL of Milli-Q water was taken in a 50 mL conical tube, 1.2 mL of each of the iron chelating agent solutions (Fe-Ser•Na (50 mM), Fe-His•Na (50 mM), Fe-Glu•Na (50 mM)) according to the iron chelating agents of Examples 1 to 3 was added, 1.0 mL of 100 mM MOPS solution was added thereto, and a further 4.0 mL of acetonitrile solution was added to produce an iron chelating solution using MOPS. The iron chelating agent solutions using MOPS and iron chelating agent according to Examples 1 to 3 were defined respectively as Fe-Ser•Na (MOPS solution)” (iron chelating agent according to
# Example 1), “Fe-His•Na (MOPS solution)” (iron chelating agent according to Example 2), and “Fe-Glu•Na(MOPS solution)” (iron chelating agent according to Example 3).
# An iron citrate complex ammonium salt solution (FAC solution (20 mM)) having a concentration of iron ions of 20 mM and an iron citrate complex ammonium salt solution (FAC solution (2 mM)) having a concentration of iron ions of 2 mM were prepared, in the same manner as the preparation method of the iron citrate complex ammonium solution in evaluation A of the iron chelating agent.
# FAC solution (20 mM) was added to and mixed with each of the iron chelating agent solutions [Fe-Ser•Na (MOPS solution), Fe-His•Na (MOPS solution), Fe-Glu•Na (MOPS solution)] using MOPS.
# [2] = tested on: iron nitrilotriacetate complex (Fe-NTA); assay: Evaluation B: chelating ability with iron, absorbance after adding chelating agent to iron nitrilotriacetate complex (Fe-NTA) solution; assay type: binding; conditions: for [B] absorbance after addition of iron chelating agent / [B]-[A]: 470 nm; for [B]-[A]: minus blank
# Experimental: Evaluation was carried out by the following evaluation method B as to whether the iron chelating agent according to Example 1 had chelating ability with iron.
# An iron chelating agent solution (Fe-Ser•Na (50 mM)) having an iron chelating agent concentration of 50 mM was prepared in the same manner as the preparation method of the iron chelating agent solution in evaluation method A of the iron chelating agent.
# Ferric chloride-6 hydrate FeCl3.6H2O (MW270.30) crystals were dissolved in Milli-Q water to prepare an 80 mM solution (A liquid). Meanwhile, 160 mM of nitrilotriacetic acid solution (B liquid) was prepared by dissolving crystals of the free salt of NTA (191.14) in 6N hydrochloric acid. 10 mL of A liquid and 10 mL of B liquid was taken in a beaker, and sodium hydrogen carbonate NaHCO3 crystals were added bit by bit while stirring slowly. When gas generation was suppressed and the solution changed to a dark green color, the addition of NaHCO3 was completed. Finally, iron nitrilotriacetate complex solution “Fe-NTA solution (20 mM)” having an iron ion concentration of 20 mM made up to 40 mL was prepared.
# Further, 1×D-PBS (pH 7.2) was added to Fe-NTA solution (20 mM) to prepare an iron nitrilotriacetate complex solution having a concentration of iron ions of 2 mM (“Fe-NTA solution (2 mM)”).
# Iron nitrilotriacetate complex solution [Fe-NTA solution (20 mM), Fe-NTA solution (2 mM)], and 1×D-PBS (pH 7.2) were mixed at the ratios shown in Tables 3 to 4, the absorbance of the mixture (wavelength 470 nm) was measured by using a spectrophotometer (trade name “NanoDrop ND-1000 Full-spectrum UV/Vis Spectrophotometer”, manufactured by SCRUM Corporation, UV-Vis Module, Measure), and the absorbance of blank ([A] in Tables 3 to 4) was determined. Then, 158 μl of Fe-Ser•Na (50 mM) was added to the mixture, the absorbance (wavelength 470 nm) was measured as described above, and the absorbance after the addition of the iron chelating agent according to Examples ([B] in Tables 3 to 4) was determined.
# [3] = Fe-NTA solution (2 mM) 0 μl + 1xD-PBS 160 μl + Fe-Ser•Na (50 mM) 158 μl
# [4] = Fe-NTA solution (2 mM) 10 μl + 1xD-PBS 150 μl + Fe-Ser•Na (50 mM) 158 μl
# [5] = Fe-NTA solution (2 mM) 20 μl + 1xD-PBS 140 μl + Fe-Ser•Na (50 mM) 158 μl
# [6] = Fe-NTA solution (2 mM) 40 μl + 1xD-PBS 120 μl + Fe-Ser•Na (50 mM) 158 μl
# [7] = Fe-NTA solution (2 mM) 80 μl + 1xD-PBS 80 μl + Fe-Ser•Na (50 mM) 158 μl
# [8] = Fe-NTA solution (2 mM) 160 μl + 1xD-PBS 0 μl + Fe-Ser•Na (50 mM) 158 μl
# [9] = Fe-NTA solution (20 mM) 0 μl + 1xD-PBS 160 μl + Fe-Ser•Na (50 mM) 158 μl
# [10] = Fe-NTA solution (20 mM) 10 μl + 1xD-PBS 150 μl + Fe-Ser•Na (50 mM) 158 μl
# [11] = Fe-NTA solution (20 mM) 20 μl + 1xD-PBS 140 μl + Fe-Ser•Na (50 mM) 158 μl
# [12] = Fe-NTA solution (20 mM) 40 μl + 1xD-PBS 120 μl + Fe-Ser•Na (50 mM) 158 μl
# [13] = Fe-NTA solution (20 mM) 80 μl + 1xD-PBS 80 μl + Fe-Ser•Na (50 mM) 158 μl
# [14] = Fe-NTA solution (20 mM) 160 μl + 1xD-PBS 0 μl + Fe-Ser•Na (50 mM) 158 μl
smiles,measurement,setting,value
"O=C(O)C(CO)NCc1ccccc1O (stereo not shown) [Example 1, o-[(1-carboxy-2-hydroxyethyl)-amino-methyl]-phenol]",colour of the solution after mixing,"[1]; FAC solution (2 mM) added to chelating agent MOPS solution (MOPS, acetonitrile)",dark brown-colored
same,colour of the solution after mixing,"[1]; FAC solution (20 mM) added to chelating agent MOPS solution (MOPS, acetonitrile)",dark brown-colored
same,[B] absorbance after addition of iron chelating agent,[2]; [3],0.011
same,[B]-[A],[2]; [3],0.007
same,[B] absorbance after addition of iron chelating agent,[2]; [4],0.017
same,[B]-[A],[2]; [4],0.014
same,[B] absorbance after addition of iron chelating agent,[2]; [5],0.026
same,[B]-[A],[2]; [5],0.023
same,[B] absorbance after addition of iron chelating agent,[2]; [6],0.041
same,[B]-[A],[2]; [6],0.036
same,[B] absorbance after addition of iron chelating agent,[2]; [7],0.075
same,[B]-[A],[2]; [7],0.071
same,[B] absorbance after addition of iron chelating agent,[2]; [8],0.135
same,[B]-[A],[2]; [8],0.125
same,[B] absorbance after addition of iron chelating agent,[2]; [9],0.008
same,[B]-[A],[2]; [9],0.005
same,[B] absorbance after addition of iron chelating agent,[2]; [10],0.081
same,[B]-[A],[2]; [10],0.077
same,[B] absorbance after addition of iron chelating agent,[2]; [11],0.163
same,[B]-[A],[2]; [11],0.153
same,[B] absorbance after addition of iron chelating agent,[2]; [12],0.322
same,[B]-[A],[2]; [12],0.296
same,[B] absorbance after addition of iron chelating agent,[2]; [13],0.731
same,[B]-[A],[2]; [13],0.676
same,[B] absorbance after addition of iron chelating agent,[2]; [14],1.244
same,[B]-[A],[2]; [14],1.132
same,capture of iron ions from an iron nitrilotriacetate complex,[2]; conclusion from Tables 3 to 4,iron ions can be captured
same,chelating ability with iron,[2]; conclusion from Tables 3 to 4,has chelating ability with iron
